# Assay results taken from article PMC2803436 (Current Chemical Genomics, 2008).
# Non-standard residues stand in square brackets, D forms with d. Residues, ends and D or L forms follow the SMILES beside them. Nle = CCCC[C@H](N)C(=O)O
# Columns and labels:
# [1] = target: T1, TEV protease (Tobacco etch virus, UniProt P04517); assay: Protein fusion; format: biochemical; conditions: tested from 0 – 0.1 mM
# T1 sequence (P04517 2038-2279): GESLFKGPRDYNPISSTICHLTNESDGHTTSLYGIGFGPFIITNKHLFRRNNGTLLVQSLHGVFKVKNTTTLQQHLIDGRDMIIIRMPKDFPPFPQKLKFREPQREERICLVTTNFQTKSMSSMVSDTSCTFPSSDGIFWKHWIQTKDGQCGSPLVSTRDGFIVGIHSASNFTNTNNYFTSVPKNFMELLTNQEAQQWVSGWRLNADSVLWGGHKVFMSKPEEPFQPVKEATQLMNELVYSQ
# [2] = target: T1, TEV protease; assay: CP234-Luc/ENLYFQC verification assay; conditions: SCH HBr and L-DOPA tested from 0 – 1 mM; NF-023 and ATA from 0 – 0.2 mM
# [3] = test system: TEV protease; assay: Initial tests of established inhibitors on TEV protease; format: biochemical, Tobacco Etch Virus; conditions: for Inhibition of TEV protease by known inhibitors of cysteine proteases: data not shown
# [4] = target: T1, TEV protease; assay: LOPAC1280 library screen using the CP234-Luc/ENLYFQC protease assay; format: biochemical; conditions: compounds at 100 µM, 15 minutes at room temperature
Compound,"Inhibition of TEV protease cleavage in re-test, CP234-Luc/ENLYFQC assay [2]",Inhibition of TEV protease by known inhibitors of cysteine proteases [3],further results
"2,5-dihydroxy-DL-tyrosine [L-DOPA]",did not inhibit,–,"Inhibition of TEV protease cleavage in re-test, protein fusion cleavage assay [1]: did not inhibit"
"CCOC(=O)[C@H]1O[C@@H]1C(=O)N[C@@H](CC(C)C)C(=O)NCCC(C)C (relative stereo) [EST, (2S,3S)-trans-Epoxysuccinyl-L-leucylamido-3-methylbutane Ethyl Ester]",–,resistant,–
"CCCC[C@@H](C=O)NC(=O)[C@H](CC(C)C)NC(=O)[C@H](CC(C)C)NC(C)=O [ALLN, N-acetyl-Leu-Leu-NIe-CHO] (Ac-Leu-Leu-[Nle]-aldehyde)",–,resistant,–
"O=C(O)C1=CC(=C(c2ccc(O)c(C(=O)O)c2)c2ccc(O)c(C(=O)O)c2)C=CC1=O [ATA, aurintricarboxylic acid]",confirmed,–,TEV protease inhibition (cleavage of CP234-Luc/ENLYFQC) in primary screen [4]: greater than 60%
CC(C)C[C@H](NC(=O)[C@H]1O[C@@H]1C(=O)O)C(=O)NCCCCN=C(N)N [E-64],–,resistant,–
"Br.CN=c1nc(-c2ccccc2)n(-c2ccccc2)s1 [SCH HBr, N-(2,3-diphenyl-1,2,4-thiadiazol-5-(2H)-ylidene)methanamine hydrobromide]",did not inhibit,–,"Inhibition of TEV protease cleavage in re-test, protein fusion cleavage assay [1]: did not inhibit"
[Zn] [zinc],–,–,"Inhibition of TEV protease ([3]; 5 mM, also frequently precipitated the proteins out of solution): effectively inhibited"
